The record followed here is patent publication US20110039762A1, “TARGETED ANTIMICROBIAL MOIETIES” (C3 JIAN, INC., priority 2009, published 2011).

Entries after “also recorded” stand apart in the source; their conditions may differ.

One assay relates to E. faecalis. Nature of the assay: Kill or inhibit growth/proliferation; morphology, biofilm and growth disruption (Tables 5, 6). Further: test concentration or dose not given here. Format: cell-based, Enterococcus faecalis. Details: key: A: Peptide aggregates; B: Less hyphal formation; Clumps; Diffuse clumps and small polyps; F: Diffuse growth; H: Thin; I: Growth inhibition; Microcolony formation; Rippled; Small polyps; Thick; W: Halo formation on top, microlonies on bottom.

The test system of assay [1] is microorganisms (e.g., bacteria, yeasts, fungi). As to the kind of experiment: Targeting peptide binding to target microorganisms (Table 3). The conditions noted are these: preferably 1x PBS; for Target(s) (microorganisms bound by the targeting peptide): peptide binding in aqueous buffers varied by peptide solubility.
Another assay concerns microorganisms. Nature of the assay: Peptides having multiple activities (targeting/binding, antimicrobial, growth or phenotype altering). From the text: In certain embodiments, peptides described herein can have multiple activities. Thus for example, a peptide can have both binding/targeting activity and antimicrobial activity. Such peptides can be used, e.g., in a chimeric construct, for any or all of these properties. Thus, for example, a peptide designated “B” in Table 8 can be used as a targeting peptide. If it is also designated G or M it can also be used for antimicrobial activity.

A further assay deals with MRSA. As to the kind of experiment: Kill or inhibit growth/proliferation; morphology, biofilm and growth disruption (Tables 5, 6). Further: test concentration or dose not given here. Format: cell-based, Methicillin-resistant Staphylococcus aureus. Details: key: A: Peptide aggregates; B: Less hyphal formation; Clumps; Diffuse clumps and small polyps; F: Diffuse growth; H: Thin; I: Growth inhibition; Microcolony formation; Rippled; Small polyps; Thick; W: Halo formation on top, microlonies on bottom.

In the next assay the test system is S. epidermidis. Described as above. Format: cell-based, Staphylococcus epidermidis. Details: key: A: Peptide aggregates; B: Less hyphal formation; Clumps; Diffuse clumps and small polyps; F: Diffuse growth; H: Thin; I: Growth inhibition; Microcolony formation; Rippled; Small polyps; Thick; W: Halo formation on top, microlonies on bottom.
The next assay relates to S. pneumoniae. The description is as above. Format: cell-based, Streptococcus pneumoniae. Also noted: key: A: Peptide aggregates; B: Less hyphal formation; Clumps; Diffuse clumps and small polyps; F: Diffuse growth; H: Thin; I: Growth inhibition; Microcolony formation; Rippled; Small polyps; Thick; W: Halo formation on top, microlonies on bottom.
Where [2] appears, read: microorganism(s) the targeting peptide binds, peptide binding conducted in aqueous buffers varied by peptide solubility.
The mark [3] stands for this setting: microorganism the targeting peptide binds, binding in aqueous buffers varied by peptide solubility.
Where [4] appears, read: microorganism(s) the targeting peptide binds, binding in aqueous buffers depending on peptide solubility.
Wherever Organism, effect (morphology, biofilm and growth disruption) is given: test concentration or dose not given here.
Wherever Organism, effect is given: test concentration or dose not given here.

Regarding “PF-602: peptide having multiple activities (LEKEKKEYIEKLFKTK; Peptide with targeting and/or antimicrobial activity)”, the “Organism, effect” value with E. faecalis is reported as “E. faecalis (A)”. In assay [1], the “Target(s) (microorganisms bound by the targeting peptide)” value was “P. mirabilis; also recorded: C. jeikeium”. The Activities result in the assay on microorganisms is recorded as “G B”.
Take “PF-594: peptide having multiple activities (IVSAIV; Peptide with targeting and/or antimicrobial activity)”: in the assay with E. faecalis, the “Organism, effect” value is on record as “E. faecalis (C)”. Further, in assay [1] (setting [2]), the “Target(s)” value is recorded as “C. jeikeium”. Further, the Activities result in the assay on microorganisms is reported as “G B”.
With “PF-027: peptide having multiple activities (chain 1 HNARKYLEFISQKIDGDKLTKEDSL; chain 2 HNARKYLEFISQKIDGDKLTKEDSL; Peptide with targeting and/or antimicrobial activity)”, the “Organism, effect” value in the assay on MRSA is given as “MRSA (M)”; in the assay with S. epidermidis it was “S. epidermidis (D)”. Besides, the “Target(s)” value in assay [1] (setting [3]) is “M. luteus and MRSA and E. faecalis and C. jejuni”. In the assay on microorganisms, the Activities entry is “G B”.
Take DEIKVSDEEIEKFIKENNL [PF-597]: the “Organism, effect” value with E. faecalis is “E. faecalis (A)”. Further, the “Target(s) (microorganisms bound by the targeting peptide)” value in assay [1] is “P. mirabilis”. Further, the Activities entry with microorganisms is given as “G B”.
For the substance “PF-373: peptide having multiple activities (chain 1 HFYLLFER; chain 2 HFYLLFER; Peptide with targeting and/or antimicrobial activity)”, the “Organism, effect” value was “MRSA (M)” in the assay on MRSA and “S. epidermidis (M)” in the assay with S. epidermidis. Besides, the “Target(s)” value in assay [1] (setting [4]) was “S. epidermidis and E. coli and P. aeruginosa and C. albicans and MRSA and E. faecalis and C. jejuni”. In addition, in the assay with microorganisms, the Activities entry is on record as “G B”.
On to “PF-430: peptide having multiple activities (AVVCGYLAYTATS; Peptide with targeting and/or antimicrobial activity)”, for which the “Organism, effect” value is “MRSA (M)” with MRSA, “S. epidermidis (M)” with S. epidermidis and “S. pneumoniae (M)” with S. pneumoniae. For the same substance, in assay [1] (setting [2]), the “Target(s)” value is “S. epidermidis; also recorded: M. luteus; also recorded: E. coli; also recorded: S. pneumoniae; also recorded: E. faecalis; also recorded: C. jeikeium; also recorded: C. jejuni”. Further, in the assay with microorganisms, the Activities entry is “G B”.
In the case of “PF-760: peptide having multiple activities (DHITLDDYEIHDGFNFELYYG; Peptide with targeting and/or antimicrobial activity)”, the “Organism, effect (morphology, biofilm and growth disruption)” value in the assay on MRSA is on record as “MRSA (M)”; in the assay with S. epidermidis it was “S. epidermidis (M)”; in the assay with S. pneumoniae, “S. pneumoniae (C)”. The “Target(s) (microorganisms bound by the targeting peptide)” value in assay [1] is reported as “S. epidermidis; also recorded: M. luteus”. In the assay with microorganisms, the Activities entry was “G B”.
In the case of “PF-484: peptide having multiple activities (chain 1 HKKDIRKQVFKN; chain 2 HKKDIRKQVFKN; Peptide with targeting and/or antimicrobial activity)”, in the assay with E. faecalis, the “Organism, effect” value was “E. faecalis (A)”. The “Target(s)” value in assay [1] (setting [2]) was “S. epidermidis; also recorded: M. luteus; also recorded: P. mirabilis; also recorded: E. coli; also recorded: E. faecalis; also recorded: C. jeikeium; also recorded: C. jejuni”. Moreover, the Activities entry in the assay with microorganisms is on record as “G B”.
“PF-588: peptide having multiple activities (ESVEAIKAKAIK; Peptide with targeting and/or antimicrobial activity)”: in the assay on E. faecalis, the “Organism, effect” value is “E. faecalis (A)”. The “Target(s)” value in assay [1] (setting [2]) is recorded as “S. epidermidis; also recorded: E. coli; also recorded: C. albicans; also recorded: E. faecalis; also recorded: C. jeikeium; also recorded: C. jejuni”. In addition, the Activities result in the assay with microorganisms was “G B”.
Consider “PF-041: peptide having multiple activities (chain 1 ELLVILPGFI; chain 2 ELLVILPGFI; Peptide with targeting and/or antimicrobial activity)”, for which the “Organism, effect” value in the assay with MRSA was “MRSA (M)”; in the assay on S. epidermidis it was “S. epidermidis (R)”. In addition, the “Target(s)” value in assay [1] (setting [3]) is reported as “MRSA”. Besides, the Activities entry with microorganisms is on record as “G B”.
Regarding “PF-404: peptide having multiple activities (VLYFQATVV; Peptide with targeting and/or antimicrobial activity)”, the results for the “Organism, effect” value with MRSA and in the assay with S. epidermidis were “MRSA (M)” and “S. epidermidis (M)”, respectively. Moreover, the “Target(s)” value in assay [1] (setting [2]) was “S. epidermidis; also recorded: E. coli; also recorded: P. aeruginosa; also recorded: E. faecalis; also recorded: C. jeikeium; also recorded: C. jejuni”. Also, the Activities result in the assay with microorganisms is reported as “G B”.
Turning to “PF-408: peptide having multiple activities (YCVPLGNMGNMNNKIW; Peptide with targeting and/or antimicrobial activity)”, the entries for the “Organism, effect” value with MRSA and in the assay on S. epidermidis were “MRSA (M)” and “S. epidermidis (M)”, respectively. In assay [1] (setting [2]), the “Target(s)” value was “S. epidermidis and E. coli and P. aeruginosa and MRSA and E. faecalis and C. jeikeium and C. jejuni”. Also, the Activities entry with microorganisms is “G B”.
In the case of “PF-649 (chain 1 CPRYPFVDVGPAGPWRARWRVGS; chain 2 CPRYPFVDVGPAGPWRARWRVGS; Peptide with targeting and/or antimicrobial activity)”, the “Organism, effect (morphology, biofilm and growth disruption)” value in the assay on E. faecalis is listed as “E. faecalis (R)”. For the same substance, in assay [1], the “Target(s) (microorganisms bound by the targeting peptide)” value is reported as “Mycobacteria spp”.
In the case of “PF-683 (chain 1 LWPVA; chain 2 LWPVA; Peptide with targeting and/or antimicrobial activity)”, the “Organism, effect (morphology, biofilm and growth disruption)” value in the assay with MRSA is “MRSA (R)”; with S. epidermidis, “S. epidermidis (R)”; in the assay on S. pneumoniae, “S. pneumoniae (H)”. Further, the “Target(s) (microorganisms bound by the targeting peptide)” value in assay [1] was “Mycobacteria spp”.
With “PF-406: peptide having multiple activities (YLEMNADYLSNMDIFDELWEKYLENNK; Peptide with targeting and/or antimicrobial activity)”, the “Organism, effect” value with MRSA is on record as “MRSA (M)”; with S. epidermidis, “S. epidermidis (C)”. The “Target(s)” value in assay [1] (setting [2]) is listed as “E. coli; also recorded: C. jejuni”. In addition, the Activities entry with microorganisms is “G B”.
Consider “PF-024: peptide having multiple activities (chain 1 DLRKAK; chain 2 DLRKAK; Peptide with targeting and/or antimicrobial activity)”, for which the “Organism, effect” value with MRSA is given as “MRSA (M)”; in the assay on S. epidermidis, “S. epidermidis (D)”. For the same substance, the “Target(s)” value in assay [1] (setting [3]) is “M. luteus and C. albicans and MRSA and E. faecalis and C. jeikeium”. Moreover, the Activities entry in the assay on microorganisms is reported as “G B”.
As to “PF-378: peptide having multiple activities (chain 1 ESAKSNLNFLMQEEWALFLLL; chain 2 ESAKSNLNFLMQEEWALFLLL; Peptide with targeting and/or antimicrobial activity)”, the “Organism, effect” value in the assay on MRSA is given as “MRSA (M)”; in the assay with S. epidermidis it was “S. epidermidis (M)”. For the same substance, the “Target(s)” value in assay [1] (setting [4]) was “B. subtilis; also recorded: B. fragilis; also recorded: E. coli; also recorded: P. aeruginosa; also recorded: C. jeikeium”. Besides, in the assay on microorganisms, the Activities entry is recorded as “G B”.
As to “PF-417: peptide having multiple activities (DSYFRS; Peptide with targeting and/or antimicrobial activity)”, the figures for the “Organism, effect” value in the assay with MRSA, with S. epidermidis and with S. pneumoniae were “MRSA (M)”, “S. epidermidis (M)” and “S. pneumoniae (M)”, respectively. Further, the “Target(s)” value in assay [1] (setting [2]) is listed as “S. epidermidis; also recorded: C. jeikeium; also recorded: C. jejuni”. For the same substance, the Activities entry with microorganisms is on record as “G B”.
Take “PF-074: peptide having multiple activities (RDIHPIYFMTKD; Peptide with targeting and/or antimicrobial activity)”: the “Organism, effect” value in the assay with MRSA is “MRSA (M)”; with S. epidermidis, “S. epidermidis (D)”. Also, in assay [1] (setting [4]), the “Target(s)” value was “S. epidermidis and M. luteus and MRSA”. For the same substance, the Activities entry in the assay with microorganisms was “G B”.
As to “PF-582 (NLKTIEKECPFCNNKMDIKLKD; Peptide with targeting and/or antimicrobial activity)”, the “Organism, effect” value in the assay with E. faecalis is reported as “E. faecalis (A)”.
“PF-064: peptide having multiple activities (chain 1 DYYGKE; chain 2 DYYGKE; Peptide with targeting and/or antimicrobial activity)”: the entries for the “Organism, effect” value with MRSA and in the assay with S. epidermidis were “MRSA (M)” and “S. epidermidis (D)”, respectively. In addition, the “Target(s)” value in assay [1] (setting [3]) is given as “E. coli”. Besides, the Activities entry in the assay with microorganisms is reported as “G B”.
